From patent US20030158094A1, “Combination product of an aryl-substituted propanolamine derivative with at least one other active ingredient and the use of the product” (priority 2001, published 2003)

Key:
Format in all cases: in vivo
[1] = system: Male Syrian hamsters (Mesocricetus auratus); assay: Liver cholesterol (HPLC) in cholesterol-fed hamsters, ezetimibe (K00 04513) plus C1; conditions: feed +0.1% CH; for Liver Cholesterol %: cholesterol ctr. = 100
Protocol: (§1) Hamsters were used for the biological testing of the combination product of the invention. Male Syrian hamsters (Mesocricetus auratus) from 8 to 10 weeks of age were used for the experiment. The animals received a standard feed (Teklad 8604M) supplemented with 0.1% cholesterol. An additional normal control group received only standard feed. The test substances were administered orally by gavage once a day on 12 consecutive days, and the control group was treated with the vehicle. Feces were collected on days 5 and 6 of the experiment for bile acid analysis. Retroorbital blood was taken from the animals on day 10 of the experiment, and the lipid levels in the plasma were determined. Radioactive tracers were administered orally to the animals on day 11 of the experiment to determine the cholesterol absorption in analogy to the method described by Zilversmith et al. On day 13 of the experiment, the animals were sacrificed, and the animals' livers were removed for cholesterol analysis and preparation of microsomes. The 7α-hydroxylase activity was determined in the liver microsomes ex vivo by a modified method of Hylemon et al. [table]

[2] = system: Male Syrian hamsters (Mesocricetus auratus); assay: Plasma lipids in cholesterol-fed hamsters, ezetimibe (K00 04513) plus C1; conditions: feed +0.1% CH; for HDL % / Plasma parameter Cholesterol % / Plasma parameter LDL % / Plasma parameter Triglycerides %: cholesterol ctr. = 100
Protocol: as §1

[3] = system: Male Syrian hamsters (Mesocricetus auratus); assay: Cholesterol absorption (3H-sitosterol/14C-cholesterol, feces) in hamsters, ezetimibe (K00 04513) plus C1; conditions: feed +0.1% CH; for CH absorption % of ctr.: normal ctr. = 100.0
Protocol: as §1

[4] = system: Male Syrian hamsters (Mesocricetus auratus); assay: Plasma lipids in cholesterol-fed hamsters, combination of compound C1 with Caromax; conditions: 30 mg/kg/d C1, feed +0.1% CH
Protocol: as §1, with “[table] Male Syrian hamsters (Mesocricetus auratus) supplied by Harlan 80-100 g at the start of adaptation Safety parameters (CH; TG; ALAT/ASAT; AP; HDL/LDL) Preliminary value and 2 days before end of the experiment (isoflurane anesthesia) by retroorbital blood sampling” for “[table]”

[5] = system: Male Syrian hamsters (Mesocricetus auratus); assay: Liver cholesterol (HPLC) in cholesterol-fed hamsters, C1 with Caromax; conditions: 30 mg/kg/d C1, feed +0.1% CH
Protocol: as §1, with “[table] Liver cholesterol (HPLC)=1×500 mg in EtOH/KOH (sample is also used for CH synthesis)” for “[table]”

[6] = system: Male Syrian hamsters (Mesocricetus auratus); assay: Liver cholesterol synthesis (14C-octanoate i.v.) in cholesterol-fed hamsters, C1 with Caromax; conditions: 30 mg/kg/d C1, feed +0.1% CH
Protocol: Hamsters were used for the biological testing of the combination product of the invention. Male Syrian hamsters (Mesocricetus auratus) from 8 to 10 weeks of age were used for the experiment. The animals received a standard feed (Teklad 8604M) supplemented with 0.1% cholesterol. An additional normal control group received only standard feed. The test substances were administered orally by gavage once a day on 12 consecutive days, and the control group was treated with the vehicle. [table] Cholesterol Synthesis i.v. administration of ^14C-octanoate 10 μCi/100 g of animal 1 hour before the end of the experiment (isoflurane anesthesia) Removal of 2×500 mg of liver in EtOH/KOH

[7] = group 3, 0.1 mg/kg/d K 00 04513
[8] = group 4, 0.3 mg/kg/d K 00 04513

O=C1[C@H](CC[C@H](O)c2ccc(F)cc2)[C@@H](c2ccc(O)cc2)N1c1ccc(F)cc1 [K 00 04513, ezetimibe, reference compound]
Liver Cholesterol [1, 7]: 11.52 mg/g
Liver Cholesterol % [1, 7]: 105%
Liver Cholesterol [1, 8]: 2.00 mg/g
Liver Cholesterol % [1, 8]: 18%
Liver Cholesterol ([1]; group 5, 1 mg/kg/d K 00 04513): 1.78 mg/g
Liver Cholesterol % ([1]; group 5, 1 mg/kg/d K 00 04513): 16%
HDL [2, 7]: 1.98 mmol/L
Plasma parameter Cholesterol [2, 7]: 3.73 mmol/L
Plasma parameter LDL [2, 7]: 1.06 mmol/L
Plasma parameter Triglycerides [2, 7]: 1.99 mmol/L
HDL % [2, 7]: 92%
Plasma parameter Cholesterol % [2, 7]: 91%
Plasma parameter LDL % [2, 7]: 94%
Plasma parameter Triglycerides % [2, 7]: 98%
HDL [2, 8]: 1.92 mmol/L
Plasma parameter Cholesterol [2, 8]: 2.99 mmol/L
Plasma parameter LDL [2, 8]: 0.40 mmol/L
Plasma parameter Triglycerides [2, 8]: 1.87 mmol/L
HDL % [2, 8]: 89%
Plasma parameter Cholesterol % [2, 8]: 73%
Plasma parameter LDL % [2, 8]: 35%
Plasma parameter Triglycerides % [2, 8]: 92%
HDL ([2]; group 5, 1 mg/kg/d K 00 04513): 1.71 mmol/L
Plasma parameter Cholesterol ([2]; group 5, 1 mg/kg/d K 00 04513): 2.53 mmol/L
Plasma parameter LDL ([2]; group 5, 1 mg/kg/d K 00 04513): 0.23 mmol/L
Plasma parameter Triglycerides ([2]; group 5, 1 mg/kg/d K 00 04513): 1.79 mmol/L
HDL % ([2]; group 5, 1 mg/kg/d K 00 04513): 80%
Plasma parameter Cholesterol % ([2]; group 5, 1 mg/kg/d K 00 04513): 62%
Plasma parameter LDL % ([2]; group 5, 1 mg/kg/d K 00 04513): 20%
Plasma parameter Triglycerides % ([2]; group 5, 1 mg/kg/d K 00 04513): 88%
CH absorption % absorption [3, 7]: 47.4%
CH absorption % of ctr. [3, 7]: ±96.8%
CH absorption % absorption [3, 8]: 15.6%
CH absorption % of ctr. [3, 8]: ±31.8%
CH absorption % absorption ([3]; group 5, 1 mg/kg/d K 00 04513): 5.8%
CH absorption % of ctr. ([3]; group 5, 1 mg/kg/d K 00 04513): ±11.9%

O=C(CCCCCCCCCCNC(=O)[C@H](O)[C@@H](O)[C@H](O)[C@H](O)CO)Nc1ccccc1[C@@H](Nc1ccccn1)[C@H](c1ccccn1)[C@H](O)c1ccccc1 [C1]
Cholesterol [4]: 3.58 mmol/L
HDL-cholesterol [4]: 2.42 mmol/L
LDL-cholesterol [4]: 0.88 mmol/L
Triglycerides [4]: 1.49 mmol/L
Cholesterol % ([4]; hyperlip. ctr. = 100): 89%
HDL-cholesterol % ([4]; hyperlip. ctr. = 100): 96%
LDL-cholesterol % ([4]; hyperlip. ctr. = 100): 75%
Triglycerides % ([4]; hyperlip. ctr. = 100): 102%
Liver Cholesterol ([1]; group 6, 3 mg/kg/d C1): 10.99 mg/g
Liver Cholesterol % ([1]; group 6, 3 mg/kg/d C1): 100%
Liver Cholesterol ([1]; group 7, 10 mg/kg/d C1): 9.50 mg/g
Liver Cholesterol % ([1]; group 7, 10 mg/kg/d C1): 86%
Liver Cholesterol ([1]; group 8, 30 mg/kg/d C1): 7.18 mg/g
Liver Cholesterol % ([1]; group 8, 30 mg/kg/d C1): 65%
Liver Cholesterol [5]: 14.72 mg/g
Liver Cholesterol % ([5]; hyperlip. ctr. = 100): 54%
HDL ([2]; group 6, 3 mg/kg/d C1): 2.20 mmol/L
Plasma parameter Cholesterol ([2]; group 6, 3 mg/kg/d C1): 3.92 mmol/L
Plasma parameter LDL ([2]; group 6, 3 mg/kg/d C1): 0.98 mmol/L
Plasma parameter Triglycerides ([2]; group 6, 3 mg/kg/d C1): 1.84 mmol/L
HDL % ([2]; group 6, 3 mg/kg/d C1): 102%
Plasma parameter Cholesterol % ([2]; group 6, 3 mg/kg/d C1): 96%
Plasma parameter LDL % ([2]; group 6, 3 mg/kg/d C1): 87%
Plasma parameter Triglycerides % ([2]; group 6, 3 mg/kg/d C1): 90%
HDL ([2]; group 7, 10 mg/kg/d C1): 2.00 mmol/L
Plasma parameter Cholesterol ([2]; group 7, 10 mg/kg/d C1): 3.70 mmol/L
Plasma parameter LDL ([2]; group 7, 10 mg/kg/d C1): 0.78 mmol/L
Plasma parameter Triglycerides ([2]; group 7, 10 mg/kg/d C1): 2.35 mmol/L
HDL % ([2]; group 7, 10 mg/kg/d C1): 93%
Plasma parameter Cholesterol % ([2]; group 7, 10 mg/kg/d C1): 90%
Plasma parameter LDL % ([2]; group 7, 10 mg/kg/d C1): 69%
Plasma parameter Triglycerides % ([2]; group 7, 10 mg/kg/d C1): 116%
HDL ([2]; group 8, 30 mg/kg/d C1): 2.02 mmol/L
Plasma parameter Cholesterol ([2]; group 8, 30 mg/kg/d C1): 3.66 mmol/L
Plasma parameter LDL ([2]; group 8, 30 mg/kg/d C1): 0.80 mmol/L
Plasma parameter Triglycerides ([2]; group 8, 30 mg/kg/d C1): 2.02 mmol/L
HDL % ([2]; group 8, 30 mg/kg/d C1): 94%
Plasma parameter Cholesterol % ([2]; group 8, 30 mg/kg/d C1): 89%
Plasma parameter LDL % ([2]; group 8, 30 mg/kg/d C1): 71%
Plasma parameter Triglycerides % ([2]; group 8, 30 mg/kg/d C1): 99%
Liver Sterol biosynthesis [6]: 73 dpm/g/h
Liver Sterol biosynthesis % ([6]; normal ctr. I = 100): 18%
CH absorption % absorption ([3]; group 6, 3 mg/kg/d C1): 39.6%
CH absorption % of ctr. ([3]; group 6, 3 mg/kg/d C1): ±80.9%
CH absorption % absorption ([3]; group 7, 10 mg/kg/d C1): 49.1%
CH absorption % of ctr. ([3]; group 7, 10 mg/kg/d C1): ±100.1%
CH absorption % absorption ([3]; group 8, 30 mg/kg/d C1): 38.3%
CH absorption % of ctr. ([3]; group 8, 30 mg/kg/d C1): ±78.2%
